In series [1] the test system is VSMC. In words: Inhibition of PDGF-BB-induced rat VSMC proliferation preincubated for 30 mins followed by PDGF-BB addition measured after 48 hrs by resazurin assay. The format is functional, cell-based. (In general: Alamar Blue is a resazurin reagent that responds to reducing activity.)
Series [2] concerns VSMC. In words: Cytotoxicity against rat VSMC at 1 to 15 uM after 48 hrs by LDH release assay. The format is cell-based.
Another series relates to Mus musculus. The series is described as follows: Inhibition of cuff-induced restenosis in C57BL/6 mouse femoral artery cuff model assessed as reduction in neointima formation dosed via local application using compound dissolved on F-127 gel measured after 2 weeks by hematoxylin and eosin staining-based microscopic analysis. Format: functional, organism-based.
The test system of series [3] is VSMC. The series is described as follows: Antimigratory activity against PDGF-BB-stimulated rat VSMC at 15 uM preincubated for 30 mins followed by PDGF-BB addition measured after 20 hrs by scratch wound-healing assay. The format is functional, cell-based.

Calls of active or inactive are those of the source. No cut-off for these calls is given here.

The term IC50 denotes the midpoint of a concentration-inhibition curve.

Turning to `COc1cc(O)c(CC=C(C)C)c(O)c1C(=O)/C=C/c1ccc(O)cc1` [XANTHOHUMOL], in the series with VSMC [1], the IC50 is 3.49 µM and the inhibition result is “Dose-dependent effect”. For the same compound, the Activity result in the series on VSMC [2] was “Non-Toxic”. The result in the series with Mus musculus was Active. Also, the outcome with VSMC [3] was Active.

The values are drawn from ChEMBL document CHEMBL4190224, “Xanthohumol Blocks Proliferation and Migration of Vascular Smooth Muscle Cells in Vitro and Reduces Neointima Formation in Vivo” (J Nat Prod, 2017).
